# Experimental data published in US7074789B2, “Kinase inhibitors” (Amgen Inc., priority 1999, dated 2006).
# What was measured:
# Assay type in all cases: biochemical
# Hck-1 = molecular target: T1, Hck-1 (Homo sapiens, UniProt P08631); experiment: Kinase inhibition assay (33P transfer), Hck; settings: Table 6, Hck-1 kinase inhibition class
# T1 construct: Kinases are expressed as either kinase domains or full length constructs; made in house
# Zap-70 = molecular target: T2, Zap-70 (Homo sapiens, UniProt P43403); experiment: Kinase inhibition assay (33P transfer), Zap-70; settings: Table 3; read-out: Zap-1
# T2 construct: Kinases are expressed as either kinase domains or full length constructs; made in house
# T2 sequence (P43403 1-619): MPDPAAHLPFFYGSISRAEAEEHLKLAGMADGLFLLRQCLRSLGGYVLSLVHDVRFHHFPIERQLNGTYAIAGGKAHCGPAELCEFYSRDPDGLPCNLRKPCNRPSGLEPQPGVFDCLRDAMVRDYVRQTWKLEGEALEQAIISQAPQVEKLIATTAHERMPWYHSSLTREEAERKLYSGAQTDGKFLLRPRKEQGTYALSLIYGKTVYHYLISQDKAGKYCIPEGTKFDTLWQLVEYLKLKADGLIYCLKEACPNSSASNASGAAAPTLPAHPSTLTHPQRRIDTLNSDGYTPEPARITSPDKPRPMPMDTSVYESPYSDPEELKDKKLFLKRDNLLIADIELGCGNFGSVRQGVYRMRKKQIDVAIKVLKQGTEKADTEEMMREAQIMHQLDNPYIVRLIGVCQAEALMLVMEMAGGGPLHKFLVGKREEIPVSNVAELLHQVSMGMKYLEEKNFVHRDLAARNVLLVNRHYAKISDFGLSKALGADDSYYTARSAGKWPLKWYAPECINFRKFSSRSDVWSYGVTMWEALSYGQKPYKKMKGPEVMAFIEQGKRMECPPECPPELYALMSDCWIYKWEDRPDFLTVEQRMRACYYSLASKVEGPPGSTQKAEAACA
# Procedure, shortened: (§1)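 Each kinase, expressed as a GST- or polyHis-tagged domain or full-length protein, phosphorylated plate-attached poly(Glu,Tyr) 4:1 or poly(Arg,Ser) 3:1 using 33P-ATP. Bound radioactivity was measured by scintillation after a 0.5% phosphoric acid wash.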
# Lyn = molecular target: T3, Lyn (Homo sapiens, UniProt P07948); experiment: Kinase inhibition assay (33P transfer), Lyn; settings: Table 6, Lyn-1 kinase inhibition class
# T3 construct: Kinases are expressed as either kinase domains or full length constructs; made in house
# T3 sequence (P07948 whole entry, species assumed, the tested form may be a part): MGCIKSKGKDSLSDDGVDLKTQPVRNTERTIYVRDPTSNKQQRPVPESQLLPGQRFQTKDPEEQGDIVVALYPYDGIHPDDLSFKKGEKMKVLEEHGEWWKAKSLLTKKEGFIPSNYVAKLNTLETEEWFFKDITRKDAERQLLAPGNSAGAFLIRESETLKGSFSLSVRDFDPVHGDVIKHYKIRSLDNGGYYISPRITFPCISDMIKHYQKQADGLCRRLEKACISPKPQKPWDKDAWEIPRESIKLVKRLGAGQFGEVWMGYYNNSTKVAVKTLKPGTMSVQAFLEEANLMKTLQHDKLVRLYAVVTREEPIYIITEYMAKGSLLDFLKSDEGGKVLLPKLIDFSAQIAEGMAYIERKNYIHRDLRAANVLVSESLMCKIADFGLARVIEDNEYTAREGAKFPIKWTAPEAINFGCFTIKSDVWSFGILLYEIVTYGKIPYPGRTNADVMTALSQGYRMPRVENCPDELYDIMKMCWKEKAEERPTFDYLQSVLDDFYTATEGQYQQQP
# From the text: (§2) The inhibitor compounds described herein are screened in the following manner. Kinases suitable for use in the following protocol to determine kinase activity of the compounds described herein include, -but are not limited to: Lck, Lyn, Src, Fyn, Syk, Zap-70, Itk, Tec, Btk, EGFR, ErbB2, Kdr, Flt-1, Flt-3, Tek, c-Met, InsR, and AKT.
# (§3) Kinases are expressed as either kinase domains or full length constructs fused to glutathione S-transferase (GST) or polyHistidine tagged fusion proteins in either E. colior Baculovirus-High Five expression systems. They are purified to near homogeneity by affinity chromatography essentially as previously described (Lehr et al., 1996; Gish et al., 1995). In some instances, kinases are co-expressed or mixed with purified or partially purified regulatory polypeptides prior to measurement of activity.
# (§4) Kinase activity and inhibition are measured essentially by established protocols (Braunwalder et al., 1996). Briefly, The transfer of ^33PO4 from ATP to the synthetic substrates poly(Glu, Tyr) 4:1 or poly(Arg, Ser) 3:1 attached to the bioactive surface of microtiter plates serves as the basis to evaluate enzyme activity. After an incubation period, the amount of phosphate transferred is measured by first washing the plate with 0.5% phosphoric acid, adding liquid scintillant, and then counting in a liquid scintillation detector. The IC50 is determined by the concentration of compound that causes a 50% reduction in the amount of […] incorporated onto the substrate bound to the plate.
# Kdr = molecular target: T4, Kdr (Homo sapiens, UniProt P35968); experiment: Kinase inhibition assay (33P transfer), Kdr; settings: Table 3; read-out: KDR-1
# T4 construct: Kinases are expressed as either kinase domains or full length constructs; made in house
# T4 sequence (P35968 20-1356, species assumed): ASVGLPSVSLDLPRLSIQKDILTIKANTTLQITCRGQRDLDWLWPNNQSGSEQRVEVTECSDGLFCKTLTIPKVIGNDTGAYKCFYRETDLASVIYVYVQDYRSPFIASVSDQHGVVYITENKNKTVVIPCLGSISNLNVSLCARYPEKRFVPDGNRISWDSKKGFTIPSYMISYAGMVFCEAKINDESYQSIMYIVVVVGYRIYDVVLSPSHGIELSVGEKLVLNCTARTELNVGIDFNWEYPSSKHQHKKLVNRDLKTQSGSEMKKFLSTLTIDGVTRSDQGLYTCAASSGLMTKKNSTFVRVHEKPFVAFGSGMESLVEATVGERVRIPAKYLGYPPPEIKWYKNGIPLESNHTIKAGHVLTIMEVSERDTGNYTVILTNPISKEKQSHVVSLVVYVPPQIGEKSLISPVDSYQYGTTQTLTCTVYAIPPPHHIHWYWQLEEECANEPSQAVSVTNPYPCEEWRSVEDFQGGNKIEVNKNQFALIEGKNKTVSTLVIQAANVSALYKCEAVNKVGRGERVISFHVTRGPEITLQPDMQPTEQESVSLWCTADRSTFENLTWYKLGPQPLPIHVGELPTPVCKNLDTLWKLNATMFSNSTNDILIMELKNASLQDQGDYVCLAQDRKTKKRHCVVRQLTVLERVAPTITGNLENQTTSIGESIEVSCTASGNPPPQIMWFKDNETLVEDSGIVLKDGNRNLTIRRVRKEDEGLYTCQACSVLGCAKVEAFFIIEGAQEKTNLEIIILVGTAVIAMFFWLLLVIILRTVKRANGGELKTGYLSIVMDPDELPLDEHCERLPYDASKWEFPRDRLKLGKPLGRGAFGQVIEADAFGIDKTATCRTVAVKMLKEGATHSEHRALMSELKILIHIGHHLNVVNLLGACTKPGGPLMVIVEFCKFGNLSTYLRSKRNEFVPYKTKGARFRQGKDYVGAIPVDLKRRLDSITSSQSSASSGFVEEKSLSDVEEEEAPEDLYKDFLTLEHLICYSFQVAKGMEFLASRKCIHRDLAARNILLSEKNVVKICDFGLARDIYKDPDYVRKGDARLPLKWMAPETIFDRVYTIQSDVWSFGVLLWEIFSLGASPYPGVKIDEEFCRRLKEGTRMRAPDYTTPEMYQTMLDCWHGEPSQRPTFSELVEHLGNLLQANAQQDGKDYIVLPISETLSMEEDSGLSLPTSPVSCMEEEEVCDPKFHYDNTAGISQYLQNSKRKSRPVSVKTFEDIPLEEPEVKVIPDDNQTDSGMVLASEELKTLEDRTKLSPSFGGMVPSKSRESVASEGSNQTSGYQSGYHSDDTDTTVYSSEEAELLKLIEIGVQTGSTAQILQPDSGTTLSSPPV
# Procedure, shortened: as §1
# c-Met = molecular target: T5, c-Met (Homo sapiens, UniProt P08581); experiment: Kinase inhibition assay (33P transfer), c-Met; settings: Table 2, kinase inhibition class; read-out: Met-1
# T5 construct: Kinases are expressed as either kinase domains or full length constructs; made in house
# Procedure, shortened: (§5)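 Each enzyme, purified to near homogeneity by affinity chromatography, was incubated with ATP carrying 33P and a substrate polymer fixed to the plate. Unbound label was removed with dilute phosphoric acid (0.5%) before adding scintillant and counting. Potency is given as the compound level cutting label uptake by 50%.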
# Fyn = molecular target: T6, Fyn (Homo sapiens, UniProt P06241); experiment: Kinase inhibition assay (33P transfer), Fyn; settings: read-out: Fyn-1
# T6 construct: Kinases are expressed as either kinase domains or full length constructs; made in house
# T6 sequence (P06241 whole entry, species assumed, the tested form may be a part): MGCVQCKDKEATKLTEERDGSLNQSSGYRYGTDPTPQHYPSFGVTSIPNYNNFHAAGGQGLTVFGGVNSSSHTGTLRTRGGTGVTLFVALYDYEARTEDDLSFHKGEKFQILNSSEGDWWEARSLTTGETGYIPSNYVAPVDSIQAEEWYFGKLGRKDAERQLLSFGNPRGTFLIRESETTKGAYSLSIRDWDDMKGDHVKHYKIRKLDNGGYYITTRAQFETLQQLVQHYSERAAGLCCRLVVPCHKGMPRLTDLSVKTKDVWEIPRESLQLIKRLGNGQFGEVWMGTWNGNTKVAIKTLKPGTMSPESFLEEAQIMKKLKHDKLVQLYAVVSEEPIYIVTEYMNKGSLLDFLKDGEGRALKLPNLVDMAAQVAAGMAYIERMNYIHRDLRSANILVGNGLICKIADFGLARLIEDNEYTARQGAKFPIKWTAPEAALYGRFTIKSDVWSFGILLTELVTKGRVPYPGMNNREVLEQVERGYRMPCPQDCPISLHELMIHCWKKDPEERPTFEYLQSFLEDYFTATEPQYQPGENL
# From the text: as §2, §3, §4
# ErbB4 = molecular target: T7, ErbB4 (Homo sapiens, UniProt Q15303); experiment: Kinase inhibition assay (33P transfer), ErbB4; settings: read-out: ErbB4-1
# T7 construct: Kinases are expressed as either kinase domains or full length constructs; made in house
# Tek = molecular target: T8, Tek (Homo sapiens, UniProt Q02763); experiment: Kinase inhibition assay (33P transfer), Tek; settings: read-out: Tek-1
# T8 construct: Kinases are expressed as either kinase domains or full length constructs; made in house
# Procedure, shortened: as §5
# EGFR = molecular target: T9, EGFR (Homo sapiens, UniProt P00533); experiment: Kinase inhibition assay (33P transfer), EGFR; settings: Table 2, kinase inhibition class; read-out: EGFR-1
# T9 construct: Kinases are expressed as either kinase domains or full length constructs; made in house
# T9 sequence (P00533 25-1210, species assumed): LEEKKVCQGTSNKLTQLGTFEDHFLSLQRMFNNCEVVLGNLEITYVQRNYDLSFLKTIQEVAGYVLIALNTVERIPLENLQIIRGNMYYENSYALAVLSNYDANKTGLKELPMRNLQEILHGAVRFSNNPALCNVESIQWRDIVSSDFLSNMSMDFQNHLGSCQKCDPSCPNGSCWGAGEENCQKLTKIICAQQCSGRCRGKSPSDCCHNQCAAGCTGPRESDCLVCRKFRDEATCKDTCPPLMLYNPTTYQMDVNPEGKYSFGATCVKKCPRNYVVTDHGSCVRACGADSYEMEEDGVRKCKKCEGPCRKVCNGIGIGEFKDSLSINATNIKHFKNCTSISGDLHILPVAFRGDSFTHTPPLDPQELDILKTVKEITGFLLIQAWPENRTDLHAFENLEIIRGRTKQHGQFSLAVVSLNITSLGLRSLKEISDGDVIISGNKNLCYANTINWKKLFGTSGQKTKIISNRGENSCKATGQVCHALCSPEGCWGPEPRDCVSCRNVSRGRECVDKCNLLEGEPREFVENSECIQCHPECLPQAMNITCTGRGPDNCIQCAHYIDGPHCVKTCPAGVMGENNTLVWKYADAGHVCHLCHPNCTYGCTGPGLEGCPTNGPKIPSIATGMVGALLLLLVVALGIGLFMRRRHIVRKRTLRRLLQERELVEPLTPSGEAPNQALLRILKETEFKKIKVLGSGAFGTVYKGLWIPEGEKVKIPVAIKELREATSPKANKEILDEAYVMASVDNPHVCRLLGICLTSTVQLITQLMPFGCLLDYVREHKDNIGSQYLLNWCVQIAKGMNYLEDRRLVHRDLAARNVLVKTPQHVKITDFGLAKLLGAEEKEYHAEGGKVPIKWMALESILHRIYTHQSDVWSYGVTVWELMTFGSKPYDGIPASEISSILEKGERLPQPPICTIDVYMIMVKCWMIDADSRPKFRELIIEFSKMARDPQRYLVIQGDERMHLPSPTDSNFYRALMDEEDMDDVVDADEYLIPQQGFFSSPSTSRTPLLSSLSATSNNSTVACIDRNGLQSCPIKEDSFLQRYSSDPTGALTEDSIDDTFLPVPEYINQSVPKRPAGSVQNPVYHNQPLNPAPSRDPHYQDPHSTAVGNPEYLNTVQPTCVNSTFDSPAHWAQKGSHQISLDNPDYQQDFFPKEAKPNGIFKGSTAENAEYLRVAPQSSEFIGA
# Procedure, shortened: as §5
# Flt-1 = molecular target: T10, Flt-1 (Homo sapiens, UniProt P17948); experiment: Kinase inhibition assay (33P transfer), Flt-1
# T10 construct: Kinases are expressed as either kinase domains or full length constructs; made in house
# From the text: as §2, §3, §4
# Itk = molecular target: T11, Itk (Homo sapiens, UniProt Q08881); experiment: Kinase inhibition assay (33P transfer), Itk; settings: Table 3; read-out: Itk-1
# T11 construct: Kinases are expressed as either kinase domains or full length constructs; made in house
# T11 sequence (Q08881 1-620): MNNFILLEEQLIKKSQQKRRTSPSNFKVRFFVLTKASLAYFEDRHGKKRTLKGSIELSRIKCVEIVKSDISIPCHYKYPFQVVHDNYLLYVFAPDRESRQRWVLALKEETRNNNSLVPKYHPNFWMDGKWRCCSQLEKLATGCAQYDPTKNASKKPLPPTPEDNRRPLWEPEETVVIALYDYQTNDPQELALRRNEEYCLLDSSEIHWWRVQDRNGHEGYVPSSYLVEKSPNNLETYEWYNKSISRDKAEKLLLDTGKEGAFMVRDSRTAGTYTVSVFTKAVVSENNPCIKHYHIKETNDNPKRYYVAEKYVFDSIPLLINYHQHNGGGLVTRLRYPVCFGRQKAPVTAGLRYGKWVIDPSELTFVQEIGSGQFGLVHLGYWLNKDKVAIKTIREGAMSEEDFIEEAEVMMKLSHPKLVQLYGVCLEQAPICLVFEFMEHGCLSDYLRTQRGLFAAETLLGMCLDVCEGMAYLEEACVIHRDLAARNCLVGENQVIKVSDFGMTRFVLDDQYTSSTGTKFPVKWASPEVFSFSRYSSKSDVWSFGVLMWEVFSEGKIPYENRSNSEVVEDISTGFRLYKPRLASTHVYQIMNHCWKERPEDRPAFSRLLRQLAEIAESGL
# Procedure, shortened: as §5
# PDGFRB = molecular target: T12, PDGFRB (Homo sapiens, UniProt P09619); experiment: Kinase inhibition assay (33P transfer), PDGFRB; settings: read-out: PDGFRB-1
# T12 construct: Kinases are expressed as either kinase domains or full length constructs; made in house
# FGFR1 = molecular target: T13, FGFR1 (Homo sapiens, UniProt P11362); experiment: Kinase inhibition assay (33P transfer), FGFR1; settings: read-out: FGFR1-1
# T13 construct: Kinases are expressed as either kinase domains or full length constructs; made in house
# Lck = molecular target: T14, Lck (Homo sapiens, UniProt P06239); experiment: Kinase inhibition assay (33P transfer), Lck; settings: Table 3; read-out: Lck-1
# T14 construct: Kinases are expressed as either kinase domains or full length constructs; made in house
# Procedure, shortened: as §1
# AKT = molecular target: T15, AKT (Homo sapiens, UniProt Q9Y243); experiment: Kinase inhibition assay (33P transfer), AKT; settings: Table 2, kinase inhibition class; read-out: AKT3-1
# T15 construct: Kinases are expressed as either kinase domains or full length constructs; made in house
# T15 sequence (Q9Y243 whole entry, the tested form may be a part): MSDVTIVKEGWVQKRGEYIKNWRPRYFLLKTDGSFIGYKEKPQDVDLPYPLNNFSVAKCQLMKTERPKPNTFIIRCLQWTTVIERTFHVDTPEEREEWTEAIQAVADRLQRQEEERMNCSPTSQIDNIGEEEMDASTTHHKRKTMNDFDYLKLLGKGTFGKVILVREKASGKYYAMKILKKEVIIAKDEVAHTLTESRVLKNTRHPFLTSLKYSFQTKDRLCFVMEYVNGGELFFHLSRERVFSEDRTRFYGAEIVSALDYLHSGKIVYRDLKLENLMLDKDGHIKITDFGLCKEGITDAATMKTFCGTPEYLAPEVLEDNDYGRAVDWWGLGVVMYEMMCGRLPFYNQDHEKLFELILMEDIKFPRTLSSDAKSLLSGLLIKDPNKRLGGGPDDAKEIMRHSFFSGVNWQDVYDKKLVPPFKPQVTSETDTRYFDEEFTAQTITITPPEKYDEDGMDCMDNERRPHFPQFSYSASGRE
# Procedure, shortened: as §1
# Src = molecular target: T16, Src (Homo sapiens, UniProt P12931); experiment: Kinase inhibition assay (33P transfer), Src; settings: Table 6, Src-1 kinase inhibition class
# T16 construct: Kinases are expressed as either kinase domains or full length constructs; made in house
# T16 sequence (P12931 whole entry, species assumed, the tested form may be a part): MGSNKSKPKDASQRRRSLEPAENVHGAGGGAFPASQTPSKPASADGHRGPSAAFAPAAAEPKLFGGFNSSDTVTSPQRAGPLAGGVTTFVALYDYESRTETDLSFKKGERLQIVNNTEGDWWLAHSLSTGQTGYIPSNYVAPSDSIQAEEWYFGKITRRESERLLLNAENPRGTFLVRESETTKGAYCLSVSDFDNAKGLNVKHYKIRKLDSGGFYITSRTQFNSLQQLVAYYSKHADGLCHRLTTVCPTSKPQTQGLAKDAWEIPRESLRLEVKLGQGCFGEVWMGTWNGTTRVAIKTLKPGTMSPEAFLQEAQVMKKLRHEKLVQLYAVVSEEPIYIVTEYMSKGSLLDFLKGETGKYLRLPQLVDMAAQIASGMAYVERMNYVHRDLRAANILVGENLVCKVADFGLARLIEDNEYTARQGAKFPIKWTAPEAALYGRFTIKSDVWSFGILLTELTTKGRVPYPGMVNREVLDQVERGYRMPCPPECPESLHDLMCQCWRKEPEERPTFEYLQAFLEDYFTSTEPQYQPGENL
# From the text: as §2, §3, §4
SMILES,IC50 (Hck-1) [µM],IC50 (Zap-70) [µM],IC50 (Lyn) [µM],IC50 (Kdr) [µM],IC50 (c-Met) [µM],IC50 (Fyn) [µM],IC50 (ErbB4) [µM],IC50 (Tek) [µM],IC50 (EGFR) [µM],IC50 (Flt-1) [µM],IC50 (Itk) [µM],IC50 (PDGFRB) [µM],IC50 (FGFR1) [µM],IC50 (Lck) [µM],IC50 (AKT) [µM],IC50 (Src) [µM]
COc1cc(Nc2ncnc(-n3c(Nc4cc(C)n[nH]4)nc4ccccc43)n2)cc(OC)c1OC [Compound 401],0.845 to 5.07,0.845 to 5.07,0.845 to 5.07,< 0.845,0.845 to 5.07,0.845 to 5.07,0.845 to 5.07,0.845 to 5.07,0.845 to 5.07,< 0.845,< 0.845,< 0.845,< 0.845,0.845 to 5.07,> 9.5,0.845 to 5.07
COc1cc(Nc2ncnc(-n3c(Nc4ccc5[nH]ncc5c4)nc4ccccc43)n2)cc(OC)c1OC [Compound 404],6.87 to 8.83,> 8.83,0.785 to 4.71,< 0.785,> 8.83,0.785 to 4.71,> 8.83,> 8.83,6.87 to 8.83,< 0.785,0.785 to 4.71,< 0.785,< 0.785,0.785 to 4.71,6.87 to 8.83,4.71 to 6.87
COc1cc(Nc2ncnc(-n3c(NCc4ccncc4)nc4ccccc43)n2)cc(OC)c1OC [Compound 413],> 9.29,> 9.29,0.826 to 4.95,< 0.826,> 9.29,0.826 to 4.95,> 9.29,> 9.29,> 9.29,0.826 to 4.95,> 9.29,< 0.826,< 0.826,> 9.29,> 9.29,0.826 to 4.95
COc1cccc(Nc2nc3ccccc3n2-c2ncnc(Nc3cc(OC)c(OC)c(OC)c3)n2)c1 [Compound 415],> 9.01,> 9.01,> 9.01,< 0.801,> 9.01,> 9.01,> 9.01,> 9.01,> 9.01,0.801 to 4.8,> 9.01,< 0.801,< 0.801,4.8 to 7.01,> 9.01,> 9.01
COc1cc(Nc2ncnc(-n3c(N)nc4ccccc43)n2)cc(OCCN2CCOCC2)c1OC [Compound 466],> 9.14,> 9.14,< 0.812,< 0.812,0.812 to 4.87,0.812 to 4.87,> 9.14,7.11 to 9.14,> 9.14,< 0.812,4.87 to 7.11,< 0.812,< 0.812,< 0.812,> 9.14,0.812 to 4.87
